For the experiment, the system named is P388 leukemia ip, CD2F1 mice, survival T/C. In words: NCI In Vivo Anticancer Drug Screen. Data for tumor model P388 Leukemia (intraperitoneal) in CD2F1 (CDF1) mice. Particulars: endpoint: median survival time, higher = longer survival. Put shortly:
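Mice carrying the transplanted tumor received test compound or vehicle. Survival was recorded in each group, and the value is the treated-group measurement divided by that of the vehicle-treated control group.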

Setting [1] is: dose: 50.0 mg/kg/injection, schedule: Q01DX005 (ip), vehicle: saline with Tween-80.
Where [2] appears, read: dose: 100.0 mg/kg/injection, schedule: Q01DX005 (ip), vehicle: saline with Tween-80.
Setting [3] is: dose: 200.0 mg/kg/injection, schedule: Q01DX005 (ip), vehicle: saline with Tween-80.
[4] abbreviates: dose: 60.0 mg/kg/injection, schedule: Q01DX005 (ip), vehicle: Klucel (hydroxypropylcellulose) (HPC).
Setting [5] is: dose: 120.0 mg/kg/injection, schedule: Q01DX005 (ip), vehicle: Klucel (hydroxypropylcellulose) (HPC).
Setting [6] is: dose: 240.0 mg/kg/injection, schedule: Q01DX005 (ip), vehicle: Klucel (hydroxypropylcellulose) (HPC).
[7] abbreviates: dose: 100.0 mg/kg/injection, schedule: Q04DX003 (ip), vehicle: saline with Tween-80.
[8] abbreviates: dose: 200.0 mg/kg/injection, schedule: Q04DX003 (ip), vehicle: saline with Tween-80.
The mark [9] stands for this setting: dose: 50.0 mg/kg/injection, schedule: Q01DX009 (ip), vehicle: saline with Tween-80.
Where [10] appears, read: dose: 100.0 mg/kg/injection, schedule: Q01DX009 (ip), vehicle: saline with Tween-80.
The mark [11] stands for this setting: dose: 400.0 mg/kg/injection, schedule: Q04DX003 (ip), vehicle: saline with Tween-80.
The mark [12] stands for this setting: dose: 200.0 mg/kg/injection, schedule: Q01DX009 (ip), vehicle: saline with Tween-80.

Where “and” joins values, the source holds several entries; their conditions need not be identical. Equal values may be shown once. Toxic doses and inconclusive results are not listed. Square brackets hold non-standard residues; d marks the D form. Peptide text beside a SMILES is read from it. ξ: configuration not given here. ξPhe(4-N(CH2CH2Cl)2) = NC(Cc1ccc(N(CCCl)CCCl)cc1)C(=O)O

As to `CC(C)CCN(CCC(C)C)CC(O)c1cc2c(c3ccccc13)CCCC2` (configuration not stated), the T/C runs as follows: (dose: 12.5 mg/kg/injection, schedule: Q01DX005 (ip), vehicle: saline with Tween-80) 96 % of control; (dose: 25.0 mg/kg/injection, schedule: Q01DX005 (ip), vehicle: saline with Tween-80) 93 % of control; under setting [1], 103 % of control and 93 % of control; under setting [2], 113 % of control; under setting [3], 108 % of control.
Regarding `CC(/C=C/c1ccc(O)cc1)=N\NC(N)=S`, the T/C was 103 % of control (dose: 3.75 mg/kg/injection, schedule: Q01DX005 (ip), vehicle: Klucel (hydroxypropylcellulose) (HPC)); 99 % of control (dose: 7.5 mg/kg/injection, schedule: Q01DX005 (ip), vehicle: Klucel (hydroxypropylcellulose) (HPC)); 99 % of control (dose: 15.0 mg/kg/injection, schedule: Q01DX005 (ip), vehicle: Klucel (hydroxypropylcellulose) (HPC)); 99 % of control and 104 % of control (dose: 30.0 mg/kg/injection, schedule: Q01DX005 (ip), vehicle: Klucel (hydroxypropylcellulose) (HPC)).
Regarding `CC1=CC(=C2C(=O)c3ccccc3C2=O)C=C(C)N1CCNCCO`, the T/C under setting [4] is 99 % of control, the T/C under setting [5] was 90 % of control and the T/C under setting [6] is 93 % of control.
As to `CCOC(=O)C(Cc1ccc(N(CCCl)CCCl)cc1)NC(=O)C(Cc1ccccc1)NC(=O)C(NC(=O)CNC(=O)C1CCCN1)C(C)C` (configuration not stated) (H-PGVF[ξPhe(4-N(CH2CH2Cl)2)]-OEt; configuration not given here), the T/C (dose: 10.0 mg/kg/injection, schedule: Q04DX003 (ip), vehicle: water) was 150 % of control; the T/C (dose: 20.0 mg/kg/injection, schedule: Q04DX003 (ip), vehicle: water) is 173 % of control; the T/C (dose: 40.0 mg/kg/injection, schedule: Q04DX003 (ip), vehicle: water) is 193 % of control.
Take `Nc1ccn(C2OC(CO)C3OP(=O)(O)OC32)c(=O)n1` (configuration not stated): the T/C (dose: 25.0 mg/kg/injection, schedule: Q01DX005 (ip), vehicle: water) is 101 % of control; the T/C (dose: 50.0 mg/kg/injection, schedule: Q01DX005 (ip), vehicle: water) was 100 % of control; the T/C (dose: 100.0 mg/kg/injection, schedule: Q01DX005 (ip), vehicle: water) was 101 % of control; the T/C (dose: 200.0 mg/kg/injection, schedule: Q01DX005 (ip), vehicle: water) was 101 % of control; the T/C (dose: 400.0 mg/kg/injection, schedule: Q01DX005 (ip), vehicle: water) was 100 % of control.
`CCO/C(=C\C(=O)c1ccccc1)c1ccccc1`: the T/C by setting is: (dose: 50.0 mg/kg/injection, schedule: Q04DX003 (ip), vehicle: saline with Tween-80) 100 % of control; under setting [7], 100 % of control; under setting [8], 100 % of control.
On to `COc1cc2cc3c4ccc(OC)c(OC)c4cc[n+]3c(C)c2cc1OC` (tested in a mixture with another compound), for which the T/C was 150 % of control (dose: 12.5 mg/kg/injection, schedule: Q01DX009 (ip), vehicle: saline with Tween-80); 164 % of control (dose: 25.0 mg/kg/injection, schedule: Q01DX009 (ip), vehicle: saline with Tween-80); 174 % of control under setting [9]; 209 % of control under setting [10].
Take `Clc1nnc(Cl)c(Cl)c1Cl`: the T/C (dose: 0.1 mg/kg/injection, schedule: Q01DX009 (ip), vehicle: saline with Tween-80) is 100 % of control; the T/C (dose: 0.1 mg/kg/injection, schedule: Q04DX003 (ip), vehicle: saline with Tween-80) is 100 % of control; the T/C (dose: 0.2 mg/kg/injection, schedule: Q01DX009 (ip), vehicle: saline with Tween-80) is 95 % of control; the T/C (dose: 0.2 mg/kg/injection, schedule: Q04DX003 (ip), vehicle: saline with Tween-80) was 100 % of control; the T/C (dose: 0.38 mg/kg/injection, schedule: Q04DX003 (ip), vehicle: saline with Tween-80) is 90 % of control; the T/C (dose: 0.4 mg/kg/injection, schedule: Q04DX003 (ip), vehicle: saline with Tween-80) is 100 % of control.
On to `COc1cccc2c1C(=O)c1c(O)c3c(c(O)c1C2=O)C[C@@](O)(/C(C)=N\NC(=O)CCC(N)C(=O)O)C[C@@H]3OC1CC(N)C(O)C(C)O1` (some centres not stated) (tested in a mixture with another compound), for which the T/C is, setting by setting: (dose: 18.75 mg/kg/injection, schedule: Q04DX003 (ip), vehicle: water) 121 % of control; (dose: 75.0 mg/kg/injection, schedule: Q04DX003 (ip), vehicle: water) 121 % of control; (dose: 300.0 mg/kg/injection, schedule: Q04DX003 (ip), vehicle: water) 163 % of control.
For the compound `OCc1cc(-c2ccc(Cl)cc2)nc2c(C(F)(F)F)cccc12`, the T/C is, setting by setting: under setting [7], 100 % of control; under setting [8], 111 % of control; under setting [11], 92 % of control.
For the compound `Cc1ccc(C2NC(c3ccc(C)cc3)C3CCCC2C3O)cc1` (configuration not stated), the T/C by setting is: (dose: 100.0 mg/kg/injection, schedule: Q04DX003 (ip), vehicle: saline) 100 % of control; (dose: 200.0 mg/kg/injection, schedule: Q04DX003 (ip), vehicle: saline) 97 % of control; (dose: 400.0 mg/kg/injection, schedule: Q04DX003 (ip), vehicle: saline) 95 % of control.
As for `O=C1C=CC2C3C(=O)N(c4ccccc4)C(=O)C3C1N2Cc1ccccc1` (configuration not stated), the T/C was 105 % of control and 110 % of control and 118 % of control under setting [1]; 116 % of control and 117 % of control and 118 % of control under setting [2]; 119 % of control and 120 % of control and 123 % of control under setting [3]; 113 % of control and 114 % of control (dose: 400.0 mg/kg/injection, schedule: Q01DX005 (ip), vehicle: saline with Tween-80).
In the case of `O=C(CON1C(=O)CCC1=O)c1ccccc1`, the T/C is 106 % of control under setting [9], 112 % of control under setting [10] and 112 % of control under setting [12].
In the case of `CN(/N=C/c1ccc2c(c1)OCO2)C(=O)c1ccccc1N`, the T/C by setting is: under setting [9], 108 % of control; under setting [10], 114 % of control; under setting [12], 116 % of control.
Turning to `NC(=O)c1cncc(CCC(O)C(=O)O)c1` (configuration not stated), the T/C runs as follows: (dose: 25.0 mg/kg/injection, schedule: Q04DX003 (ip), vehicle: Klucel (hydroxypropylcellulose) (HPC)) 96 % of control; (dose: 50.0 mg/kg/injection, schedule: Q04DX003 (ip), vehicle: Klucel (hydroxypropylcellulose) (HPC)) 91 % of control; (dose: 100.0 mg/kg/injection, schedule: Q04DX003 (ip), vehicle: Klucel (hydroxypropylcellulose) (HPC)) 100 % of control.
Take `COc1cccc(CC#N)c1O`: the T/C reads like this: (dose: 25.0 mg/kg/injection, schedule: Q01DX009 (ip), vehicle: Klucel (hydroxypropylcellulose) (HPC)) 105 % of control; (dose: 50.0 mg/kg/injection, schedule: Q01DX009 (ip), vehicle: Klucel (hydroxypropylcellulose) (HPC)) 100 % of control; (dose: 100.0 mg/kg/injection, schedule: Q01DX009 (ip), vehicle: Klucel (hydroxypropylcellulose) (HPC)) 106 % of control.
Consider `CC(C)c1ccc(/C=C/c2ccc(N(C)C)cc2)cc1`, for which the T/C (dose: 50.0 mg/kg/injection, schedule: Q01DX009 (sc), vehicle: olive oil, sesame oil, peanut oil) is 100 % of control; the T/C (dose: 100.0 mg/kg/injection, schedule: Q01DX009 (sc), vehicle: olive oil, sesame oil, peanut oil) is 100 % of control; the T/C (dose: 200.0 mg/kg/injection, schedule: Q01DX009 (sc), vehicle: olive oil, sesame oil, peanut oil) is 97 % of control.
Turning to `[Cl][Cu][Cl].[NH-]C1CCCC2CCC[N-]C12` (configuration not stated), the T/C (dose: 12.5 mg/kg/injection, schedule: Q04DX002 (ip), vehicle: saline with Tween-80) is 106 % of control.
On to `Nc1c(CNCc2nnn(Cc3ccccc3)c2N)nnn1Cc1ccccc1`, for which the T/C is, setting by setting: under setting [9], 96 % of control; under setting [10], 93 % of control; under setting [12], 93 % of control.
As for `O=C(c1ccc(Cl)cc1)n1c(Cl)c(/C=N\Nc2ccc([N+](=O)[O-])cc2)c2ccccc21`, the T/C under setting [7] is 94 % of control, the T/C under setting [8] is 97 % of control and the T/C under setting [11] was 92 % of control.
Turning to `Cc1ccc(NC(=O)Oc2cc(C)c(Br)c(C)c2)cc1Cl`, the T/C (dose: 50.0 mg/kg/injection, schedule: Q01DX009 (ip), vehicle: saline) is 107 % of control; the T/C (dose: 100.0 mg/kg/injection, schedule: Q01DX009 (ip), vehicle: saline) was 95 % of control; the T/C (dose: 200.0 mg/kg/injection, schedule: Q01DX009 (ip), vehicle: saline) is 91 % of control.
Turning to `O=C(Nc1ncnc2nc(-c3ccccc3)[nH]c12)c1ccccc1`, the T/C was 107 % of control under setting [4], 95 % of control under setting [5] and 95 % of control under setting [6].
Take `OC1CC(OCc2ccccc2)CC1O` (configuration not stated): the T/C reads like this: under setting [9], 103 % of control; under setting [10], 97 % of control; under setting [12], 103 % of control.

These data come from PubChem BioAssay AID330 (DTP/NCI, 2004).
